{
  "source": "patent US12522614B2",
  "about": "“Topical phosphoinositide 3-kinase inhibitors” (VENTHERA, INC., priority 2019, dated 2026)",
  "key": {"[1]": {"experiment": "In vitro human skin permeation study of topical gel formulations (Franz diffusion cells)", "type": "in vitro ADME", "settings": "saturated gel formulations, skin flux experiments", "source_text": "The gel formulation of Example 8 was used as the donor phase to determine the permeation of Compound 1.002 through human skin and its effectiveness as a topical application. Three skin donors and three diffusion cells (for each donor) per formulation were used in the in vitro skin permeation experiments. Split thickness dermatomed (approximately at […] thickness) human cadaver skin, supplied by New York Firefighters Skin Bank, NY, was used to determine the permeation rate of the tested compound (i.e., the drug) in vitro. All in vitro skin permeation studies were conducted using the Vertical Diffusion Cells assembly with consoles (Model FDC-6), and heating controllers (Logan Instruments Inc. Somerset, NJ). Each assembly consisted of six vertical, jacketed (37° C.±0.5° C.) 12-mL Franz diffusion cells with magnetic stirrer and 1.767 cm^2 diffusion area.\n(§1) Skin flux studies were run for a period of 48 hours. At predetermined intervals (2, 4, 8, 24 and 48 hours) after starting the experiment, the entire contents of the receiver compartment were collected for determining concentrations of the drug by HPLC. The receiver compartment was refilled with fresh receiver medium. The receiver medium was pH 7.4 phosphate buffer with 0.5 mg/ml of Oleath 20 with the saturation concentration of the drug in the receptor medium being 0.152 mg/ml. This solubility of the drug in the receiver medium was enough to ensure sink conditions throughout each collection interval.\nSamples of the receptor phase were obtained at 2, 4, 8, 12, 24 and 48 h and concentrations of Compound 1.002 and 3-(4-morpholinothieno(3,2-d)pyrimidin-2-yl)phenol (metabolite of Compound 1.002, abbreviated as MTPP) were determined using a validated HPLC method. The metabolism of Compound 1.002 to MTPP takes place in the human skin by esterase enzymes.\nHPLC method: Column—Gemini C-18 4.6×150 mm, 5 μm particle size; Mobile Phase—water:acetonitrile 25:75 containing 0.1% TFA; Flow Rate—1 mL/min; Detection—274 nm; Column Temperature—40° C.; and Run Time—10 min. The retention times for MTPP and Compound 1.002 were 3.9 and 7.2 minutes, respectively.\nThe skin flux of drugs and cumulative amount of drugs permeated (sum of MTPP and Compound 1.002) for a period of 48 hours were calculated and are shown in Table 3. FIG. 3 represents a plot of Cumulative amount permeated versus time."}, "[2]": {"experiment": "In vitro human skin permeation study of topical gel formulations (Franz diffusion cells)", "type": "in vitro ADME", "settings": "human skin; for Cumulative permeation (intact compound) / Hydrolysis of Cmpd. 1.001 to MTPP: Study-4, saturated gel"}, "[3]": {"experiment": "Accelerated stability study of topical gel formulations at 80° C.", "type": "physicochemical", "settings": "for Relative Purity: gel formulation (Table 2 excipients); for Relative Purity / percent hydrolysis to the parent compound MTPP: 80° C.; for percent hydrolysis to the parent compound MTPP: gel formulation", "procedure": "Topical gel formulations were prepared using excipients as shown in Table 2 according to Example 8, in which Compounds 1.002, 1.012, and 1.006 were used as the active ingredient, respectively. These gel formulations were subjected to stability study at 80° C. for 10 days. Stability under the condition of at 80° C. for 10 days is expected to be approximately equivalent to the stability for three (3) years at room temperature. A relative purity of the tested compound after being exposed for 5 days and 10 days at 80° C. was determined by HPLC, as compared to its initial purity (at day 0).\nThe values shown in the table are percent hydrolysis of the respective compounds to the parent compound MTPP.\nTopical gel formulations of Compound 1.002 were prepared using excipients as shown in Table 2 according to Example 8, in which the content of oleic acid varied at 1%, 2%, 5%, and 10%, respectively. These gel formulations were subjected to stability study at 80° C. for 10 days, which is expected to be approximately equivalent to the stability for three (3) years at room temperature. A purity of the tested compound on day 0, 5, 7, and 10 at 80° C. was determined by HPLC. The detected impurity of the tested compound appears to be the hydrolysis product, as MTPP. Table 17 represents stability data of Compound 1.002 in topical formulations having oleic acid at various contents.\nGel formulations of Example 17 were subjected to stability study at 80° C. for 10 days. Stability under the condition of at 80° C. for 10 days is expected to be approximately equivalent to the stability for three (3) years at room temperature. A relative purity of Compound 1.002 after being exposed for 5 days and 10 days at 80° C. was determined by HPLC, as compared to its initial purity (at day 0)."}, "[4]": {"experiment": "Saturation concentration in formulation or receiver medium", "type": "physicochemical", "settings": "gel formulation with excipients of Example 8 (Table 2)", "procedure": "The liquid excipients, i.e. DMSO, oleic acid, Transcutol® P, and dipropylene glycol were mixed in a 20-mL vial, by vortex agitation. The active ingredient, a compound of formula (I), for example Compound 1.002 was then added, and the vial content was sonicated for 10 minutes to dissolve the compound. […] Hydroxylpropyl cellulose (HPC) was added, and the vial was agitated by vortex for another ten minutes to obtain the gel formulation. The viscosity of the clear gel was measured to be in a range of about 7,000 to 10,000 centipoise (cp).\nas §1"}, "[5]": {"experiment": "Accelerated stability study of topical gel formulations at 80° C.", "type": "physicochemical", "settings": "gel formulation, 3 days"}, "[6]": {"settings": "Study-5, Table 6A experiment, saturated gel, 2 h"}, "[7]": {"settings": "Study-5, Table 6A experiment, saturated gel, 4 h"}, "[8]": {"settings": "Study-5, Table 6A experiment, saturated gel, 8 h"}, "[9]": {"settings": "Study-5, Table 6A experiment, saturated gel, 24 h"}, "[10]": {"settings": "Study-5, Table 6A experiment, saturated gel, 48 h"}, "[11]": {"settings": "Study-5, Table 6B experiment, gel saturated at 215 mg/mL, 2 h"}, "[12]": {"settings": "Study-5, Table 6B experiment, gel saturated at 215 mg/mL, 4 h"}, "[13]": {"settings": "Study-5, Table 6B experiment, gel saturated at 215 mg/mL, 8 h"}, "[14]": {"settings": "Study-5, Table 6B experiment, gel saturated at 215 mg/mL, 24 h"}, "[15]": {"settings": "Study-5, Table 6B experiment, gel saturated at 215 mg/mL, 48 h"}},
  "data": [
    {"smiles": "COc1cccc(-c2nc(N3CCOCC3)c3sccc3n2)c1", "note": "[Compound 1.001, 4-(2-(3-Methoxyphenyl)thieno[3,2-d]pyrimidin-4-yl)morpholine]", "values": [
      {"measurement": "Metabolism to MTPP during permeation through human skin", "setting": "[1]", "result": "appeared not to metabolize to MTPP"},
      {"measurement": "Cumulative permeation (intact compound)", "setting": "[2]; 2 h", "result": 0.0, "unit": "μg/cm^2"},
      {"measurement": "Hydrolysis of Cmpd. 1.001 to MTPP", "setting": "[2]; 2 h", "result": 0.0},
      {"measurement": "Cumulative permeation (intact compound)", "setting": "[2]; 4 h", "result": 10.2, "unit": "μg/cm^2"},
      {"measurement": "Hydrolysis of Cmpd. 1.001 to MTPP", "setting": "[2]; 4 h", "result": 0.0},
      {"measurement": "Cumulative permeation (intact compound)", "setting": "[2]; 8 h", "result": 51.8, "unit": "μg/cm^2"},
      {"measurement": "Hydrolysis of Cmpd. 1.001 to MTPP", "setting": "[2]; 8 h", "result": 0.0},
      {"measurement": "Cumulative permeation (intact compound)", "setting": "[2]; 24 h", "result": 202.1, "unit": "μg/cm^2"},
      {"measurement": "Hydrolysis of Cmpd. 1.001 to MTPP", "setting": "[2]; 24 h", "result": 0.0},
      {"measurement": "Cumulative permeation (intact compound)", "setting": "[2]; 48 h", "result": 260.4, "unit": "μg/cm^2"},
      {"measurement": "Hydrolysis of Cmpd. 1.001 to MTPP", "setting": "[2]; 48 h", "result": 0.0}
    ]},
    {"smiles": "CCCCCC(=O)Oc1cccc(-c2nc(N3CCOCC3)c3sccc3n2)c1", "note": "[Compound 1.006, 3-(4-Morpholinothieno[3,2-d]pyrimidin-2-yl)phenyl Hexanoate]", "values": [
      {"measurement": "Relative Purity", "setting": "[3]; Day 0", "result": 100, "unit": "%"},
      {"measurement": "Relative Purity", "setting": "[3]; Day 5", "result": 94, "unit": "%"},
      {"measurement": "Relative Purity", "setting": "[3]; Day 10", "result": 92, "unit": "%"},
      {"measurement": "Saturation concentration in the gel formulation", "setting": "[4]", "result": 215, "unit": "mg/mL"},
      {"measurement": "Metabolism to MTPP during permeation through human skin", "setting": "[1]", "result": "metabolize into MTPP"},
      {"measurement": "Cumulative permeation, Compound 1.006", "setting": "[2]; [6]", "result": 0.0, "unit": "μg/cm^2"},
      {"measurement": "Hydrolysis of Cmpd. 1.006 to MTPP", "setting": "[2]; [6]", "result": 100, "unit": "%"},
      {"measurement": "Cumulative permeation, Compound 1.006", "setting": "[2]; [7]", "result": 0.0, "unit": "μg/cm^2"},
      {"measurement": "Hydrolysis of Cmpd. 1.006 to MTPP", "setting": "[2]; [7]", "result": 100, "unit": "%"},
      {"measurement": "Cumulative permeation, Compound 1.006", "setting": "[2]; [8]", "result": 1.0, "unit": "μg/cm^2"},
      {"measurement": "Hydrolysis of Cmpd. 1.006 to MTPP", "setting": "[2]; [8]", "result": 96.7, "unit": "%"},
      {"measurement": "Cumulative permeation, Compound 1.006", "setting": "[2]; [9]", "result": 13.0, "unit": "μg/cm^2"},
      {"measurement": "Hydrolysis of Cmpd. 1.006 to MTPP", "setting": "[2]; [9]", "result": 79.5, "unit": "%"},
      {"measurement": "Cumulative permeation, Compound 1.006", "setting": "[2]; [10]", "result": 30.5, "unit": "μg/cm^2"},
      {"measurement": "Hydrolysis of Cmpd. 1.006 to MTPP", "setting": "[2]; [10]", "result": 82.0, "unit": "%"},
      {"measurement": "Cumulative permeation, Compound 1.006", "setting": "[2]; [11]", "result": 0.0, "unit": "μg/cm^2"},
      {"measurement": "Hydrolysis of Cmpd. 1.006 to MTPP", "setting": "[2]; [11]", "result": 100, "unit": "%"},
      {"measurement": "Cumulative permeation, Compound 1.006", "setting": "[2]; [12]", "result": 0.5, "unit": "μg/cm^2"},
      {"measurement": "Hydrolysis of Cmpd. 1.006 to MTPP", "setting": "[2]; [12]", "result": 93.3, "unit": "%"},
      {"measurement": "Cumulative permeation, Compound 1.006", "setting": "[2]; [13]", "result": 0.5, "unit": "μg/cm^2"},
      {"measurement": "Hydrolysis of Cmpd. 1.006 to MTPP", "setting": "[2]; [13]", "result": 97.8, "unit": "%"},
      {"measurement": "Cumulative permeation, Compound 1.006", "setting": "[2]; [14]", "result": 0.6, "unit": "μg/cm^2"},
      {"measurement": "Hydrolysis of Cmpd. 1.006 to MTPP", "setting": "[2]; [14]", "result": 98.9, "unit": "%"},
      {"measurement": "Cumulative permeation, Compound 1.006", "setting": "[2]; [15]", "result": 0.6, "unit": "μg/cm^2"},
      {"measurement": "Hydrolysis of Cmpd. 1.006 to MTPP", "setting": "[2]; [15]", "result": 99.4, "unit": "%"}
    ]},
    {"smiles": "CCCCCCCCCC(=O)Oc1cccc(-c2nc(N3CCOCC3)c3sccc3n2)c1", "note": "[Compound 1.008, 3-(4-Morpholinothieno[3,2-d]pyrimidin-2-yl)phenyl Decanoate]", "values": [
      {"measurement": "percent hydrolysis to the parent compound MTPP", "setting": "[5]", "result": 0.20, "unit": "%"},
      {"measurement": "Stability in gel formulation", "setting": "[3]; 80° C. for 10 days", "result": "very stable"},
      {"measurement": "percent hydrolysis to the parent compound MTPP", "setting": "[3]; 0 days", "result": 0.00, "unit": "%"},
      {"measurement": "percent hydrolysis to the parent compound MTPP", "setting": "[3]; 5 days", "result": 0.28, "unit": "%"},
      {"measurement": "percent hydrolysis to the parent compound MTPP", "setting": "[3]; 7 days", "result": 0.39, "unit": "%"},
      {"measurement": "percent hydrolysis to the parent compound MTPP", "setting": "[3]; 10 days", "result": 0.56, "unit": "%"}
    ]}
  ]
}
